Measured values reported in patent US12629374B2, “Antimalarial agents” (Merck Sharp & Dohme LLC, priority 2020, dated 2026).
Where a name gives a salt, the structure may show the parent alone. Read-outs that look alike come from different tables or passages of the source.

System: ring stage parasites
Assay: Parasite growth potency assay, 72 hours, LDH readout
Type: cell-based
Settings: parasite growth measured by LDH assay after 72 hours at 37° C., 0.7% rings, 2% haematocrit, read-out: EC50
Method: The parasite stock was maintained at 4% haematocrit in RPMI-Hepes media buffered with sodium bicarbonate and supplemented with 5% heat inactivated human serum and 0.5% albumax.
On the day of assay set up, a blood smear of the parasite culture was Giemsa stained and counted. The parasitemia was adjusted to 0.7% rings and the haematocrit was diluted to 2% in RPMI-Hepes media buffered with sodium bicarbonate and supplemented with 5% heat inactivated human serum and 0.5% albumax. 30 ul of diluted parasites are then added into 10 ul of media+compound in pre-prepared Greiner TC assay plates. Parasite assay plates were placed in gassed humidified boxes in single layer and allowed to incubate at 37° C. for 72 hours. After 72 hours growth, assay plates are sealed with parafilm and frozen flat, in single file at −80° C. overnight. On the following day, assay plates are allowed to thaw at room temperature for 4 hours to which an LDH assay is performed to measure parasite growth.

SMILES | EC50 (72 h) | further results
CC(C)[C@]1(C)CC(=O)N(Cc2cc(F)cc(C(=O)N[C@@H]3c4ccccc4C[C@H]3O)c2)C(=N)N1 [Example 30, [(4S)-1-[[3-fluoro-5-[[(1R,2R)-2-hydroxyindan-1-yl]carbamoyl]phenyl]methyl]-4-isopropyl-4-methyl-6-oxo-hexahydropyrimidin-2-ylidene]ammonium; 2,2,2-trifluoroacetate] | 3.1 nM | 
CCC1(CC)CC(=O)N(Cc2cccc(C(=O)N[C@@H]3c4ccccc4OC3(C)CO)c2)C(=N)N1 (stereo in doubt) [Example 187B, [4,4-diethyl-1-[[3-[[2-(hydroxymethyl)-2-methyl-3H-benzofuran-3-yl]carbamoyl]phenyl]methyl]-6-oxo-hexahydropyrimidin-2-ylidene]ammonium; 2,2,2-trifluoroacetate] |  | EC50 (trifluoroacetate): 19.3 nM
CCC1(CC)CC(=O)N(Cc2cccc(C(=O)N[C@@H]3c4ccccc4OCC3O)c2)C(=N)N1 (stereo in doubt) [Example 126B, 3-[(4,4-diethyl-2-imino-6-oxo-hexahydropyrimidin-1-yl)methyl]-N-(3-hydroxychroman-4-yl)benzamide] | 19.4 nM | 
CCC1(CC)CC(=O)N([C@H](CCOC)c2cccc(C(=O)NC3c4ccccc4CC3(C)O)c2)C(=N)N1 (single isomer, unassigned) [Example 142B, 3-[1-(4,4-diethyl-2-imino-6-oxo-hexahydropyrimidin-1-yl)-3-methoxy-propyl]-N-(2-hydroxy-2-methyl-indan-1-yl)benzamide] | 1.4 nM | 
C#CCCCC(c1cccc(C(=O)NC2CCOc3ccccc32)c1)N1C(=N)NC(CC)(CC)CC1=O [Example 210C, [1-[1-[3-[[(4S)-chroman-4-yl]carbamoyl]phenyl]hex-5-ynyl]-4,4-diethyl-6-oxo-hexahydropyrimidin-2-ylidene]ammonium; 2,2,2-trifluoroacetate] |  | EC50 (trifluoroacetate): 6.9 nM
CCC1(CC)NC(=N)N(Cc2cc(F)cc(C(=O)N[C@@H]3c4ccccc4C[C@H]3O)c2)C(=O)C1C (stereo partly drawn) [Example 48, [4,4-diethyl-1-[[3-fluoro-5-[[(1R,2R)-2-hydroxyindan-1-yl]carbamoyl]phenyl]methyl]-5-methyl-6-oxo-hexahydropyrimidin-2-ylidene]ammonium; 2,2,2-trifluoroacetate] | 5.2 nM | 
CC(C)[C@]1(C)CC(=O)N([C@H](c2ccccc2)c2cccc(C(=O)N[C@@H]3CCOc4ccccc43)c2)C(=N)N1 [Example 9B, [(4S)-1-[(R)-[3-[[(4R)-chroman-4-yl]carbamoyl]phenyl]-phenyl-methyl]-4-isopropyl-4-methyl-6-oxo-hexahydropyrimidin-2-ylidene]ammonium; 2,2,2-trifluoroacetate] | 19.2 nM | 
CC[C@H](c1cccc(C(=O)N[C@@H]2c3ccccc3OC[C@@]2(C)O)c1)N1C(=N)NC(CC)(CC)CC1=O [Example 206A, 3-[1-(4,4-diethyl-2-imino-6-oxo-hexahydropyrimidin-1-yl)propyl]-N-[(3S,4R)-3-hydroxy-3-methyl-chroman-4-yl]benzamide] | 1 nM | 
CCC12CCCCCCC3COc4ccccc4C3NC(=O)c3cccc(c3)CN(C(=N)N1)C(=O)C2 (single isomer, unassigned) [Example 120C, (26-ethyl-8,29-dioxo-17-oxa-1,9,27-triazapentacyclo[24.2.2.13,7.010,19. 011,16]hentriaconta-3,5,7(31),11(16),12,14-hexaen-28-ylidene)ammonium; 2,2,2-trifluoroacetate] |  | EC50: 21.9 nM
COCC[C@H](c1cccc(C(=O)N[C@@H]2c3ccccc3C[C@H]2O)c1)N1C(=N)NC(C)(C)CC1=O [Example 179, [1-[(1R)-1-[3-[[(1R,2R)-2-hydroxyindan-1-yl]carbamoyl]phenyl]-3-methoxy-propyl]-4,4-dimethyl-6-oxo-hexahydropyrimidin-2-ylidene]ammonium; 2,2,2-trifluoroacetate] | 8.3 nM | 
CCC1(CC)CC(=O)N([C@@H](c2cccc(C(=O)N[C@H]3CCOc4ccccc43)c2)c2cccc(S(C)(=O)=O)c2)C(=N)N1 [Example 123A, [1-[[3-[[(4S)-chroman-4-yl]carbamoyl]phenyl]-(3-methylsulfonylphenyl)methyl]-4,4-diethyl-6-oxo-hexahydropyrimidin-2-ylidene]ammonium; 2,2,2-trifluoroacetate] | 1.9 nM | 
CCC1(COC)CC(=O)N(Cc2cccc(C(=O)N[C@@H]3c4ccccc4C[C@H]3O)c2)C(=N)N1 (stereo partly drawn) [Example 95, [4-ethyl-1-[[3-[[(1R,2R)-2-hydroxyindan-1-yl]carbamoyl]phenyl]methyl]-4-(methoxymethyl)-6-oxo-hexahydropyrimidin-2-ylidene]ammonium; 2,2,2-trifluoroacetate] | 43.2 nM | 
CCC1(CC)CC(=O)N(Cc2cccc(C(=O)N[C@H]3CC(C)(C)Oc4cc(F)ccc43)c2)C(=N)N1 (stereo in doubt) [Example 93, [4,4-diethyl-1-[[3-[(7-fluoro-2,2-dimethyl-chroman-4-yl)carbamoyl]phenyl]methyl]-6-oxo-hexahydropyrimidin-2-ylidene]ammonium; 2,2,2-trifluoroacetate] | 1.8 nM | 
CCC1(CC)CC(=O)N([C@H](CCOC)c2cncc(C(=O)N[C@@H]3c4ccccc4C[C@H]3O)c2)C(=N)N1 [Example 125, [4,4-diethyl-1-[1-[5-[[(1R,2R)-2-hydroxyindan-1-yl]carbamoyl]pyridin-1-ium-3-yl]-3-methoxy-propyl]-6-oxo-hexahydropyrimidin-2-ylidene]ammonium; 2,2,2-trifluoroacetate] | 2.7 nM | 
CCC1(CC)CC(=O)N([C@H](CCOC)c2cccc(C(=O)NC3c4ccccc4CC3(C)O)c2)C(=N)N1 (stereo in doubt) [Example 142A, 3-[1-(4,4-diethyl-2-imino-6-oxo-hexahydropyrimidin-1-yl)-3-methoxy-propyl]-N-(2-hydroxy-2-methyl-indan-1-yl)benzamide] | 2.1 nM | 
CCC1(CC)CC(=O)N(C(CCOC)c2ccc(C(F)(F)F)c(C(=O)N[C@@H]3c4ccccc4OC[C@H]3O)c2)C(=N)N1 (stereo partly drawn) [Example 243, 5-[1-(4,4-diethyl-2-imino-6-oxo-hexahydropyrimidin-1-yl)-3-methoxy-propyl]-N-[(3S,4R)-3-hydroxychroman-4-yl]-2-(trifluoromethyl)benzamide] | 6.4 nM | 
CCC1(CC)CC(=O)N([C@H](c2cncc(F)c2)c2cccc(C(=O)N[C@H]3CC(C)(C)Oc4ccccc43)c2)C(=N)N1 [Example 99A, [1-[[3-[[(4S)-2,2-dimethylchroman-4-yl]carbamoyl]phenyl]-(5-fluoropyridin-1-ium-3-yl)methyl]-4,4-diethyl-6-oxo-hexahydropyrimidin-2-ylidene]ammonium; 2,2,2-trifluoroacetate] | 0.6 nM | 
CC[C@H](c1cccc(C(=O)N[C@@H]2c3ccccc3OC[C@]2(C)O)c1)N1C(=N)NC(CC)(CC)CC1=O [Example 206B, [4,4-diethyl-1-[1-[3-[[(3R,4R)-3-hydroxy-3-methyl-chroman-4-yl]carbamoyl]phenyl]propyl]-6-oxo-hexahydropyrimidin-2-ylidene]ammonium; 2,2,2-trifluoroacetate] |  | EC50 (trifluoroacetate): 0.7 nM
CCC1(CC)CC(=O)N(C(CC(O)C(F)(F)F)c2cccc(C(=O)N[C@@H]3c4ccccc4C[C@H]3O)c2)C(=N)N1 (single isomer, unassigned) [Example 236B] |  | EC50: 0.96 nM
CCC1(CC)CC(=O)N([C@H](CCOC)c2cc(F)cc(C(=O)NC3c4ccccc4OC3(C)COC)c2)C(=N)N1 (single isomer, unassigned) [Example 176C, trifluoroacetate] |  | EC50 (trifluoroacetate): 98.9 nM
